From patent US20250034522A1, “METHOD FOR SEPARATING PITUITARY CELLS AND HYPOTHALAMIC CELLS USING CELL SURFACE MARKER” (FUJITA ACADEMY, priority 2021, published 2025) come the findings set out here.

Where no end group is shown, it is not given here.

What all share (type): cell-based, human
The test system of test [1] is cell aggregates reaggregated after MACS purification from hESC sample (CD49c-positive / CD49c-negative cells). The test can be described thus: ACTH secretion test (CRH stimulation) on reaggregates after MACS purification. The settings on record: 8 days after reaggregation, 5 aggregates, 1 μg/ml CRH in HBSS, 37° C., 10 minutes, ECLIA. How it is done:
The test method used cell aggregates that were cultured for 8 days after MACS purification from a sample differentiated from hESC (also referred to as “hESC sample”) and reaggregation. 5 cell aggregates were transferred to a 1.5 ml microtube and incubated in 250 μl of HBSS(+) (Wako, #084-08965) at 37° C. for 10 minutes, and then HBSS was collected. Subsequently, HBSS was collected after incubation at 37° C. for 10 minutes in 250 μl of HBSS containing 1 μg/ml CRH (Peptide Institute, #4136-s). The ACTH concentration in the collected HBSS was measured by the ECLIA method used in clinical testing.
(§1) Cell aggregates that were reaggregated after MACS or FACS purification and cultured for 8 days or more were used. One or five cell aggregates were incubated at a predetermined temperature and for a predetermined time using a predetermined medium, etc., and then the medium and the like were collected. ACTH concentration in the collected medium etc., was measured by the ECLIA method used in clinical testing. In addition, when confirming the influence of secretion suppressing factors and CRH receptor inhibitors, pretreatment was performed for a predetermined period of time with a maintenance medium containing secretion suppressing factors and CRH receptor inhibitors before secretion measurement.

The test system of test [2] is cell aggregates reaggregated after FACS purification from hiPSC sample (CD49c-positive / CD49c-negative cells). Kind of test: ACTH secretion test (CRH stimulation) on hiPSC sample reaggregates. The note with it: cultured 21 days, 1 μg/ml CRH in standard glucose medium, 37° C., 30 minutes, ECLIA. How it is done:
(§2) As a test method, a cell aggregate that was reaggregated after FACS purification from a hiPSC sample and cultured for 21 days was used. Each cell aggregate was transferred to a 1.5 ml microtube, incubated in 250 μl of standard glucose medium (glucose-free DMEM+5.56 mM D-glucose+4.44 mM D-mannitol) at 37° C. for 30 minutes, and then the medium was collected. Subsequently, the aggregate was incubated in 250 μl of standard glucose medium containing 1 μg/ml CRH (Peptide Institute, #4136-s) at 37° C. for 30 minutes, and then the medium was collected. The ACTH concentration in the collected medium was measured by the ECLIA method used in clinical testing.
as §1

The test system of test [3] is CD49c-positive cell aggregates reaggregated after FACS purification from hESC sample. The test can be described thus: ACTH secretion test (CRH stimulation) on reaggregates after FACS purification. The settings on record: CD49c-positive cells (FACS, hESC sample), cultured 12 days, 1 μg/ml CRH in standard glucose medium, 37° C., 30 minutes, ECLIA. How it is done: as §2, with “hESC” for “hiPSC”, “12” for “21”, “testing. […] As a test method, a cell aggregate that was reaggregated after FACS purification from a hESC sample and cultured for 13 days was used. Before secretion measurement, cells were pretreated for 3 hours with maintenance medium (gfCDM+20% KSR+2 μM SAG) containing cortisol (Hydrocortisone, […]) or the same amount of solvent (0.1% DMSO) as a control. […] The ACTH concentration in the collected medium was measured by the ECLIA method used in clinical testing.” for “testing.”
(§3) Cell aggregates that were reaggregated after MACS or FACS purification and cultured for 8 days or more were used. […] ACTH concentration in the collected medium etc., was measured by the ECLIA method used in clinical testing. […]

The test system is the same in test [4]. The test can be described thus: ACTH secretion test with CRH receptor inhibitor under standard and low glucose. The settings on record: 3 hours pretreatment, vs 0.1% DMSO, 30 minutes, aggregates cultured 13-15 days. How it is done: As a test method, a cell aggregate that was reaggregated after FACS purification from a hESC sample and cultured for 13-15 days was used. Before secretion measurement, cells were pretreated for 3 hours with maintenance medium (gfCDM+20% KSR+[…]) containing antalarmin […] or the same amount of solvent (0.1% DMSO) as a control. Each pretreated cell aggregate was transferred to a 1.5 ml microtube, incubated in 250 μl of standard glucose medium (glucose-free DMEM+5.56 mM D-glucose+4.44 mM D-mannitol) at 37° C. for 30 minutes, and the medium was collected. Subsequently, the aggregate was incubated in 250 μl of low glucose medium (glucose-free DMEM+0.56 mM D-glucose+9.44 mM D-mannitol) at 37° C. for 30 minutes, and then the medium was collected. Antalarmin or DMSO was continuously added to the standard glucose medium and low glucose medium described above. The results of measuring the ACTH concentration in the collected medium using the ECLIA method used in clinical tests are shown. It was confirmed that ACTH secretion increased under low glucose conditions (10 mg/dL) compared to standard glucose conditions (100 mg/dL). […]
as §3

For test [5] the test system is unchanged. Kind of test: ACTH secretion test with secretion suppressor cortisol. The settings on record: CD49c-positive cells (FACS, hESC sample), cultured 13 days, 3 hours pretreatment, Hydrocortisone 20 µg/ml vs 0.1% DMSO, standard glucose medium 30 minutes, ECLIA. On the procedure: as §2, with “hESC” for “hiPSC”, “12” for “21”, “testing. […] As a test method, a cell aggregate that was reaggregated after FACS purification from a hESC sample and cultured for 13 days was used. Before secretion measurement, cells were pretreated for 3 hours with maintenance medium (gfCDM+20% KSR+2 μM SAG) containing cortisol (Hydrocortisone, […]) or the same amount of solvent (0.1% DMSO) as a control. […] The ACTH concentration in the collected medium was measured by the ECLIA method used in clinical testing. […] ACTH concentration in the collected medium etc., was measured by the ECLIA method used in clinical testing. […]” for “testing.”

For the compound “CRH: CRH (Peptide Institute, #4136-s), a physiological secretion stimulating factor (SEEPPISLDLTFHLLREVLEMARAEQLAQQAHSNRKLMEII; ends and bridges not checked; UniProt P06850 154-194, looked up)”, the “ACTH secretion before and after CRH stimulation” value is on record as “did not respond to CRH” in test [1] (CD49c-negative cells (MACS, hESC sample)) and “increased ACTH secretion” in test [1] (CD49c-positive cells (MACS, hESC sample)). The “ACTH secretion per cell aggregate before and after CRH stimulation” value in test [2] (CD49c-negative cells (FACS, hiPSC sample)) is listed as “did not respond to CRH”; in test [2] (CD49c-positive cells (FACS, hiPSC sample)), “increased ACTH secretion”; in test [3] it was “ACTH secretion increases”.

With `CCCCN(CC)c1nc(C)nc2c1c(C)c(C)n2-c1c(C)cc(C)cc1C` [Antalarmin], the “ACTH secretion with Antalarmin treatment” value in test [4] (low glucose conditions (10 mg/dL)) and in test [4] (standard glucose conditions (100 mg/dL)) was “reduced ACTH secretion” throughout.

Regarding `C[C@]12CCC(=O)C=C1CC[C@@H]1[C@@H]2[C@@H](O)C[C@@]2(C)[C@H]1CC[C@]2(O)C(=O)CO` [cortisol, Hydrocortisone], the “ACTH secreted per cell aggregate before and after cortisol treatment” value in test [5] is “ACTH secretion was reduced”.
